The numbers were not newly measured in US6436949B1, “Heterocyclically substituted benzamides and their use” (Abbott Laboratories, priority 1996, dated 2002), which cites them from elsewhere.

For series [1], the system named is calpain. The conditions noted are these: activated platelets; J. Biol. Chem., 1993, Vol 268, 12603-12608.
The test system of series [2] is calpain. The settings on record: J.Med.Chem. 1990,33, 11-13.

As for `CCCC[C@@H](C=O)NC(=O)[C@H](CC(C)C)NC(=O)OCc1ccccc1` [calpeptin], the “cleavage of pp60src” value in series [1] was “can be prevented”. As to Ph—CONH—CH(CH2Ph)—CO—COCOOCH3, the inhibition of calpain entry in series [2] is on record as “weak inhibitor of calpain”.
